Format in all cases: biochemical
In test [1] the test system is T1, membrane-bound D-glucose dehydrogenase (GlcDH) from Arthrobacter globiformis C224.
T1 construct: gene gcd; native, purified from membrane fraction of C224 (Triton X-114, precipitations, hydroxylapatite); 87 kDa, single SDS-PAGE band, no subunits
As to the kind of experiment: single-substrate kinetics, Lineweaver-Burk. The conditions noted are these: pH 5.0 (Table 5); general assay uses ferricyanide as electron acceptor in McIlvaine buffer, stated there as pH 3.0. The source says:
single-substrate kinetics, Lineweaver-Burk on membrane-bound D-glucose dehydrogenase (GlcDH) from Arthrobacter globiformis […]

The target in test [2] is T1, membrane-bound D-glucose dehydrogenase (GlcDH) from Arthrobacter globiformis C224. Put plainly: steady-state product inhibition kinetics, Lineweaver-Burk. The conditions noted are these: competitive towards PMS; PMS varied at 33 mM glucose, gluconic acid 0-200 mM; read-out: inhibition constant.
Test [3] deals with T1, membrane-bound D-glucose dehydrogenase (GlcDH) from Arthrobacter globiformis C224. As to the kind of experiment: dual-substrate initial velocity kinetics (ping-pong). Particulars: artificial electron acceptor; glucose as co-substrate (5-80 mM), PMS 50-200 µM.

Data on six compounds can be found in publication PMC6272208, “2-Keto-D-Gluconate-Yielding Membrane-Bound D-Glucose Dehydrogenase from Arthrobacter globiformis C224: Purification and Characterization” (Molecules, 2015).

Where a name gives a salt, the structure may show the parent alone.

Turning to `OC[C@H]1OC(O)[C@H](O)[C@@H](O)[C@@H]1O` (stereo partly drawn) [D-glucose], the Km in test [1] was found to be 210 ± 10 µM.

As for `O=C(O)[C@H](O)[C@@H](O)[C@H](O)[C@H](O)CO` [gluconic acid], the Ki in test [2] is 11.4 mM.

As for `OC1OC[C@@H](O)[C@H](O)[C@H]1O` (stereo partly drawn) [D-xylose], in test [1], the Km was 340 ± 20 µM.

For the compound `C[n+]1c2ccccc2nc2ccccc21` [N-methylphenazonium methyl sulfate], the Michaelis-Menten constant (Km) in test [3] was found to be 400 µM.

In the case of `OC[C@H]1OC(O)[C@H](O)[C@@H](O)[C@H]1O` (stereo partly drawn) [D-galactose], in test [1], the Km is 460 ± 20 µM.

As for `OC[C@H]1O[C@H](O[C@H]2[C@H](O)[C@@H](O)C(O)O[C@@H]2CO)[C@H](O)[C@@H](O)[C@@H]1O` (stereo partly drawn) [maltose], the Michaelis-Menten constant (Km) in test [1] worked out at 590 ± 30 µM.
